Laboratory results published in ChEMBL document CHEMBL5335831, “Total Synthesis of a TNBC-Selective Cytotoxic Bromo Nor-eremophilane, PC-A, and Its Preliminary Structure-Activity Relationships” (J Nat Prod, 2024).
pIC50: −log10 of the molar value. The source made the active and inactive calls. The rule behind the calls is not given here.

Tests used:
MDA-MB-231 [1] = assay: Induction of cell cycle arrest in human MDA-MB-231 cells assessed as accumulation of cells at G2/M phase at IC50 x 8 incubated for 24 hrs by propidium iodide staining based flow cytometry; assay type: functional
MDA-MB-231 [2] = assay: Induction of cell cycle arrest in human MDA-MB-231 cells assessed as accumulation of cells at G2/M phase at IC50 incubated for 24 hrs by propidium iodide staining based flow cytometry; assay type: functional
MDA-MB-231 [3] = assay: Antiproliferative activity against human MDA-MB-231 cells assessed as cell growth inhibition incubated for 72 hrs by sulforhodamine B assay; assay type: functional, cell-based; settings: MDA-MB-231, 72 h
MCF7 = assay: Antiproliferative activity against human MCF7 cells assessed as cell growth inhibition incubated for 72 hrs by sulforhodamine B assay; assay type: functional, cell-based; settings: MCF7, 72 h
KB = assay: Antiproliferative activity against human KB cells assessed as cell growth inhibition incubated for 72 hrs by sulforhodamine B assay; assay type: functional, cell-based
[4] = Antiproliferative activity against human KB-VIN cells assessed as cell growth inhibition incubated for 72 hrs by sulforhodamine B assay; assay type: functional, cell-based; settings: KBVIN
A549 = assay: Antiproliferative activity against human A549 cells assessed as cell growth inhibition incubated for 72 hrs by sulforhodamine B assay; assay type: functional, cell-based; settings: A549, 72 h
MDA-MB-231 [5] = assay: Induction of nuclear fragmentation in human MDA-MB-231 cells at 8 x IC50 incubated for 24 hrs by propidium iodide staining based flow cytometry; assay type: functional, cell-based
MDA-MB-231 [6] = assay: Induction of cell cycle arrest in human MDA-MB-231 cells assessed as accumulation of cells at sub-G1 phase at 8 x IC50 incubated for 24 hrs by propidium iodide staining based flow cytometry; assay type: functional

| Structure (SMILES) | pIC50 (MDA-MB-231 [3]) | pIC50 (MCF7) | pIC50 (KB) | pIC50 (A549) | Activity (MDA-MB-231 [1]) | Activity (MDA-MB-231 [2]) | pIC50 [4] | Activity (MDA-MB-231 [5]) | Activity (MDA-MB-231 [6]) |
| --- | --- | --- | --- | --- | --- | --- | --- | --- | --- |
| CC(=O)C1=C(O)C=C2C(Br)=C[C@H](O)[C@H](C)[C@@]2(C)C1 | 5.28 | 4.89 | 4.82 | 4.72 | Active | Active | 4.74 |  |  |
| C[C@H]1[C@H](O)C=CC2=CC(=O)CC[C@@]21C | < 4.40 | < 4.40 | 4.49 | < 4.40 |  |  | < 4.40 |  |  |
| CC(=O)C1=C(O)C=C2C=CC(=O)[C@H](C)[C@@]2(C)C1 | 4.51 | 4.80 | 5.02 | 4.54 |  |  | 4.59 |  |  |
| C[C@H]1[C@H](O)C=C(Br)C2=CC(=O)CC[C@@]21C | 4.49 | 4.44 | 4.54 | 4.46 |  |  | 4.43 |  |  |
| CC(=O)O[C@H]1C(=O)[C@@]2(C)[C@H]([C@H](OC(=O)c3ccccc3)[C@]3(O)C[C@H](OC(=O)[C@H](O)[C@@H](NC(=O)c4ccccc4)c4ccccc4)C(C)=C1C3(C)C)[C@]1(OC(C)=O)CO[C@@H]1C[C@@H]2O [PACLITAXEL] |  | 7.96 |  | 8.27 |  |  | 5.62 |  |  |
| C[C@H]1C(=O)C=CC2=CC(=O)CC[C@@]21C | < 4.40 | < 4.40 | < 4.40 | < 4.40 |  |  | < 4.40 |  |  |

Second part, led by results:

| pIC50 (MDA-MB-231 [3]) | pIC50 (MCF7) | pIC50 (KB) | pIC50 (A549) | Structure (SMILES) | Activity (MDA-MB-231 [1]) | Activity (MDA-MB-231 [2]) | pIC50 [4] | Activity (MDA-MB-231 [5]) | Activity (MDA-MB-231 [6]) |
| --- | --- | --- | --- | --- | --- | --- | --- | --- | --- |
| < 4.40 | < 4.40 | < 4.40 | < 4.40 | CC(=O)C1=C(O)C=C2C=C[C@H](O)[C@H](C)[C@@]2(C)C1 |  |  | < 4.40 |  |  |
| 5.19 | 4.77 | 4.74 | 4.60 | C[C@H]1C(=O)C=C(Br)C2=CC(=O)CC[C@@]21C |  | Active | 4.72 | Active | Active |
| 5.28 | 5.16 | 5.30 | 5.10 | CC(=O)C1=C(O)C=C2C(Br)=CC(=O)[C@H](C)[C@@]2(C)C1 |  | Active | 5.10 |  |  |
